The term Solubility denotes the dissolved amount per volume that the medium holds. A high value points to a readily soluble substance.

For data set [1], the target named is T1, full-length beta-Catenin (Uniprot ID P35222) (Homo sapiens, UniProt P35222).
T1 construct: 10 nM full-length beta-Catenin (Uniprot ID P35222)
T1 sequence (P35222 1-781): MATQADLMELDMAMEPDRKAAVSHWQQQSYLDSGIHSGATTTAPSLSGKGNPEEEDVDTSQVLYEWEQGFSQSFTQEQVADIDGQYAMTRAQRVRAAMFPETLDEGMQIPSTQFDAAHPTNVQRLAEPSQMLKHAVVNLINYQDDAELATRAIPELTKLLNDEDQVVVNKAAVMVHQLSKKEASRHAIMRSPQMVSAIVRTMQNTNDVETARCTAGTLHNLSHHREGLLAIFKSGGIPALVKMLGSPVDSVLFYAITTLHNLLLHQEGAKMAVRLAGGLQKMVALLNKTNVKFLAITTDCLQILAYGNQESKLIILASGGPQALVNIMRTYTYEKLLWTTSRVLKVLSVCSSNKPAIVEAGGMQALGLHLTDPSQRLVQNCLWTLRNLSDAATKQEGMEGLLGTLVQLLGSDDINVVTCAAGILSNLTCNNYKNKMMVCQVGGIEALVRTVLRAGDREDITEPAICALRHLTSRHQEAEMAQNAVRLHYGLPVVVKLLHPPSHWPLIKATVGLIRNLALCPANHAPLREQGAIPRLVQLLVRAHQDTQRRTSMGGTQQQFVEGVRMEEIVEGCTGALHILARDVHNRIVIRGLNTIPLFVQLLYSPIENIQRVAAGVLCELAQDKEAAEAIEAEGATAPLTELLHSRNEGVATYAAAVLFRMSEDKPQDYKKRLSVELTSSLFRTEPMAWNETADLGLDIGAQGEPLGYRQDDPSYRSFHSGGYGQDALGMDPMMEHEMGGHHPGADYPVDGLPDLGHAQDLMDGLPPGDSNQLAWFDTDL
The experiment in a line: Fluorescence polarization IC50 (beta-catenin / 5FAM-TCF4 10-53 competition). It counts as binding. In general terms: Polarisation of emitted light reports the rotation of a fluorescent probe.

The target in data set [2] is T2, beta-catenin/TCF4 engagement (Homo sapiens, UniProt P35222).
T2 construct: expressed in transfected cells; host or cells: HEK293
T2 sequence (P35222 1-781): T1 sequence (P35222 1-781)
The data set can be described thus: Nano-BRET target engagement assay (B-cat-Halo & TCF4-Luc in HEK293 cells). It counts as cell-based. (In general: BRET reads energy transfer from a luciferase to a nearby fluorophore.)

Data set [3] has as its system PLOD2 and LCOR. The data set can be described thus: Expression of beta-catenin-independent genes (FIG. 2). In kind it is cell-based.
Data set [4] in a line: Solubility in PBS. In kind it is physicochemical. In a few lines:
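The PBS solution was ultracentrifuged and the supernatant analyzed by HPLC. Its peak area was divided by that of a 50 μM peptide DMSO reference injection and multiplied by 50 uM to give solubility.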

In data set [5] the test system is DLD1. The experiment in a line: Reporter assay (e.g., DLD1 reporter assay) (FIG. 3). In kind it is cell-based. As to conditions: compared to a control peptide I-796. The source says: FIG. 3. Provided technologies can effectively modulate expression.
Various technologies can be utilized for characterizing and/or assessing provided technologies (e.g., agents (e.g., various peptides), compositions, methods, etc.) in accordance with the present disclosure. As described herein, in some embodiments, a useful technology is or comprises fluorescence polarization. In some embodiments, a useful technology assesses Log P or Log D. In some embodiments, a useful technology is or comprises a CHI Log D assay. In some embodiments, a useful technology assesses solubility. In some embodiments, a useful technology is or comprises NanoBRET. In some embodiments, a useful technology is or comprises a reporter assay (e.g., DLD1 reporter assay). In some embodiments, a useful technology is or comprises alphascreen. Certain useful protocols are described in the Examples. Those skilled in the art appreciate that suitable adjustments may be made to such protocols, e.g., according to specific conditions, agents, purposes, etc.
In general terms: Reporter assays use an easily measured gene product as a stand-in for the process of interest.

Data set [6] concerns TCF/LEF luciferase Reporter in DLD1 cells. The data set can be described thus: TCF reporter assay (DLD1 TCF/LEF luciferase reporter, Bright-Glo). It counts as cell-based. To be noted: read-out: TCF Reporter Assay Abs IC50. In a few lines:
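DLD1 cells stably carrying a TCF/LEF luciferase reporter were plated at 5000 cells/well in RPMI + 4% FBS and treated overnight with a 1:2 compound dilution series. Bright-Glo luminescence read on day 3; viability by CellTiter-Glo. Absolute IC50 determined.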

Data set [7] concerns Axin2 and Myc. The data set can be described thus: Gene expression in cells (FIG. 1). It counts as cell-based. The source says: FIG. 1. Provided agents can modulate gene expression in cells.
Data set [8] in a line: CHI Log D procedure. In kind it is physicochemical. To be noted: pH 7.4.

≈ marks a conversion by molar mass, not a printed value. Read-outs that look alike come from different tables or passages of the source.

On to `CC(=O)N1CCC[C@]12CC=CCCCC1(CCCC=CCCCOC(=O)N3CC[C@@](C(=O)N[C@@H](Cc4ccccc4Cl)C(=O)N[C@@H](Cc4csc5ccccc45)C(=O)N[C@@H](CCC(N)=O)C(N)=O)(C3)NC(=O)[C@H]([C@@H](C)O)NC(=O)[C@H](Cc3ccccc3)NC(=O)[C@H](C)NC(=O)[C@H](C)NC(=O)[C@H](CN(CC(=O)O)CC(F)(F)F)NC(=O)[C@H](CC(=O)O)NC1=O)NC(=O)[C@H](CC(C)(C)C)NC(=O)[C@H](CC(=O)O)NC2=O` (stereo partly drawn) [I-922, Ac-PL3-Asp-Npg-B5-Asp-TfeGA-Ala-Ala-Phe-Thr-PyrS2-2C1F-BztA-Gln-NH2], for which the IC50 in data set [1] (fluorescence polarization, beta-catenin, read-out: FP EC50) is 0.012 µM; in data set [1] (read-out: beta-Catenin FP IC50), 0.012 µM; in data set [2] (Peptide + ST-Protein (SAINT-Protein lipid), read-out: Nano-BRET Abs IC50), 1 µM; in data set [2] (Peptide only, read-out: Nano-BRET Abs IC50), 6 µM; in data set [2] (absolute IC50, read-out: NanoBRET Abs IC50), 2.7 µM; in data set [2] (read-out: NanoBRET Abs IC50) it was 2.7 µM. Also, the IC50 in data set [2] (read-out: NanoBRET IC50) was 2.3 µM; in data set [6] (Peptide + ST-Protein (SAINT-Protein lipid)) it was 0.2 µM; in data set [6] (Peptide only), 5 µM. In data set [3], the “expression of beta-catenin-independent genes including beta-catenin-independent WNT target genes such as PLOD2 and LCOR” value is “do not significantly impact expression”. Also, the “Solubility” value in data set [4] was 32 µM (≈ 65.4 µg/mL). For the same compound, in data set [5], the “expression in a report assay” value is recorded as “can effectively reduce expression”. In addition, in data set [7], the “expression of various nucleic acids such as Axin2 and Myc” value was “can effectively reduce expression”. Besides, in data set [8], the “CHI Log D” value is 2.344.

The values above are taken from patent publication US20240116985A1, “STAPLED PEPTIDES AND METHODS THEREOF” (priority 2020, published 2024).
